Measured values taken from PMC4784888, “Activity Based High-Throughput Screening for Novel O-GlcNAc Transferase Substrates Using a Dynamic Peptide Microarray” (PLoS ONE, 2016).

Experiments:
Format in all cases: biochemical, human
m-OGT [1] = assay: O-GlcNAcylation on nuclear hormone receptor interaction peptide microarray, m-OGT; settings: bacterial lysate containing m-OGT (7 μg/μL), 1 mM UDP-GlcNAc, 50 mM Tris-HCl pH 7.5, 30°C, FITC antibody fluorescence, corrected for signal without UDP-GlcNAc
Experimental: (§1) Plasmids encoding s-OGT, m-OGT, and nc-OGT are generous gifts from John A. Hanover (National Institute of Health, USA). OGT overexpression was carried out as previously described. All the plasmids were transformed into E.coli BL21 (DE3) competent cells to produce a cell lysate containing OGT for use or for further purification. Briefly, inoculated a single colony into 50 ml of LB broth media containing 50 μg/ml ampicillin and cells were grown overnight at 37°C with vigorous shaking. 50 mL of the start culture was added into 1L LB broth media containing 50 μg/mL ampicillin and it was incubated with shaking at 200 rpm at 37°C until A600 reached 0.4–0.6. After the culture was cooled to room temperature, 0.5 mM IPTG was added into the culture to induce protein expression. After 16 hours, the cells were collected by centrifugation for 10 min at 4000 RPM at 4°C. The pellets were lysed in lysis buffer containing 20 mM Tris-HCl, pH 7.5, 1 mg/mL lysome, 0.1% triton x-100 and complete mini EDTA-free protease inhibitor cocktail on ice for 10 min and the lysate was sonicated until the DNA was completely sheared. After centrifugation for 10 min at 12000 rpm at 4°C, the supernatant was carefully transferred into a clean tube and was ready for the array assay or for further purification. Protein expression was determined by coomassie blue staining and western blotting using an anti-OGT antibody.
(§2) Peptide O-GlcNAcylation was assessed using PamChip 4 microarray chips with a PamStation 12 instrument (Pamgene international, The Netherlands). The OGT enzyme reaction was prepared essentially as described[26] with minor modifications. Briefly, before addition of the enzyme reaction, the microarray was blocked with blocking buffer (1% BSA in TBS). After 30 cycles (2 cycles/min) blocking, the blocking buffer was aspirated and the microarray was incubated with 40 μL of the enzyme reaction containing OGT (lysate or purified), OGT reaction buffer (50 mM Tris—HCl, pH 7.5;1 mM DTT;12.5 mM MgCl2), a 1:1 pre-incubated mixture of anti-O-GlcNAc and FITC conjugated secondary antibody, and the sugar donor UDP-GlcNAc or water as a control for 480 cycles (2 cycles/min) at 30°C. The microarray was run in parallel by pumping the reaction up and down through the porous membrane at every cycle and a tiff image was obtained at every 20 cycles by a CCD camera inside the PamStation. O-GlcNAcylation of each peptide was detected by a fluorescent signal which was produced by an FITC conjugated antibody bound to the O-GlcNAc moiety on the peptide.
(§3) Image analysis was performed using BioNavigator 6 software (Pamgene international, The Netherlands). Briefly, each image was quantified by automated array grid finding and subsequent quantification of signal and local background for each individual spot. In this work, the signal median-minus-background value was used as the quantitative parameter for the O-GlcNAcylation of the peptide.
(§4) Dynamic peptide microarray (PamChip) technology has been successfully and widely used for kinase activities profiling in the last decade. In the present work, we describe, for the first time, the utility of this peptide microarray format for the identification of human OGT activity. Due to the fact that O-GlcNAcylation and phosphorylation may occur at the same or proximal amino acids on the same protein [9], a peptide microarray of 144 peptides derived from different kinase substrates (S1 Appendix) was selected for an initial test. […] O-GlcNAcylation of peptides in each individual spot was detected by a fluorescent signal produced by the FITC labelled antibody recognizing the O-GlcNAcylated amino acids of converted peptides. Kinetic activity was measured through scanning the signal at regular intervals.
(§5) Fig 2 Identification of human OGT substrates from a kinase substrate and nuclear hormone receptor interaction peptide microarray. […]

nc-OGT [2] = assay: O-GlcNAcylation on nuclear hormone receptor interaction peptide microarray, nc-OGT; settings: bacterial lysate containing nc-OGT (7 μg/μL), 1 mM UDP-GlcNAc, 50 mM Tris-HCl pH 7.5, 30°C, FITC antibody fluorescence, corrected for signal without UDP-GlcNAc
Experimental: as §1, §2, §3, §4, §5

s-OGT [3] = assay: O-GlcNAcylation on nuclear hormone receptor interaction peptide microarray, s-OGT; settings: bacterial lysate containing s-OGT (7 μg/μL), 1 mM UDP-GlcNAc, 50 mM Tris-HCl pH 7.5, 30°C, FITC antibody fluorescence, corrected for signal without UDP-GlcNAc
Experimental: as §1, §2, §3, §4, §5

[4] = test system: OGT (s-OGT, m-OGT, nc-OGT); assay: O-GlcNAcylation on nuclear hormone receptor interaction peptide microarray, three isoforms taken together; settings: for identification in microarray assay: nuclear receptor interaction peptide microarray; for O-GlcNAcylation by three isoforms: nuclear hormone receptor interaction microarray, bacterial lysates s-, m-, nc-OGT, 1 mM UDP-GlcNAc
Experimental: as §1, §2, §3
as §4, with “activity.” for “activity. Due to the fact that O-GlcNAcylation and phosphorylation may occur at the same or proximal amino acids on the same protein [9], a peptide microarray of 144 peptides derived from different kinase substrates (S1 Appendix) was selected for an initial test.”, “intervals. […]” for “intervals.”

m-OGT [5] = assay: O-GlcNAcylation on kinase substrate peptide microarray, m-OGT; settings: bacterial lysate containing m-OGT (7 μg/μL), 1 mM UDP-GlcNAc, 50 mM Tris-HCl pH 7.5, 30°C, FITC antibody fluorescence, corrected for signal without UDP-GlcNAc
Experimental: as §1, §2, §3, §4, §5

s-OGT [6] = assay: O-GlcNAcylation on kinase substrate peptide microarray, s-OGT; settings: bacterial lysate containing s-OGT (7 μg/μL), 1 mM UDP-GlcNAc, 50 mM Tris-HCl pH 7.5, 30°C, FITC antibody fluorescence, corrected for signal without UDP-GlcNAc
Experimental: as §1, §2, §3, §4, §5

nc-OGT [7] = assay: O-GlcNAcylation on kinase substrate peptide microarray, nc-OGT; settings: bacterial lysate containing nc-OGT (7 μg/μL), 1 mM UDP-GlcNAc, 50 mM Tris-HCl pH 7.5, 30°C, FITC antibody fluorescence, corrected for signal without UDP-GlcNAc
Experimental: as §1, §2, §3, §4, §5

OGT isoforms activity, nc (nc-OGT [2])	OGT isoforms activity, s (s-OGT [3])	identification in microarray assay [4]	OGT isoforms activity, m (m-OGT [5])	Sequence	OGT isoforms activity, m (m-OGT [1])	O-GlcNAcylation by three isoforms [4]	OGT isoforms activity, s (s-OGT [6])	OGT isoforms activity, nc (nc-OGT [7])
N (otherwise negative)	N (otherwise negative)	–	–	SPSQGAASRPAILYALLSSSLKA [NR0B2_9_31_C9S/C11S]	P (Signal greater than 5% of the highest signal was defined as positive)	–	–	–
–	–	not identified in our microarray assay	–	GTGGLSAVSSGPRLRLLLLESVS [PELP1_20_42]	–	–	–	–
N (otherwise negative)	N (otherwise negative)	–	–	QFPLPKNLLAKVIQIATSSSTA [DHX30_241_262]	P (Signal greater than 5% of the highest signal was defined as positive)	–	–	–
N (otherwise negative)	N (otherwise negative)	–	–	GSDVHQDSIVLTYLEGLLMHQAA [NRIP1_8_30]	P (Signal greater than 5% of the highest signal was defined as positive)	–	–	–
–	–	–	N (otherwise negative (N))	DNTPHTPTPFKNA [MYBB_513_525, kinase substrate microarray peptide …]	–	–	P (Signal greater than 5% of the highest signal was defined as positive (P))	N (otherwise negative (N))
–	–	–	N (otherwise negative (N))	ERSKTVTSFYNQS [BCKD_45_57, kinase substrate microarray peptide …]	–	–	N (otherwise negative (N))	P (Signal greater than 5% of the highest signal was defined as positive (P))
N (otherwise negative)	N (otherwise negative)	–	–	SQSTFNNPRPGQLGRLLPNQNLP [NCOA2_866_888]	P (Signal greater than 5% of the highest signal was defined as positive)	–	–	–
–	–	–	N (otherwise negative (N))	QVEFRRLSISAES [KPB1_1011_1023, kinase substrate microarray peptide …]	–	–	P (Signal greater than 5% of the highest signal was defined as positive (P))	N (otherwise negative (N))
–	–	–	N (otherwise negative (N))	KWTKRTLSETSSS [KCNB1_489_501, kinase substrate microarray peptide …]	–	–	N (otherwise negative (N))	P (Signal greater than 5% of the highest signal was defined as positive (P))
–	–	not identified in our microarray assay	–	SDGDSKYSQTSHKLVQLLTTTAEQ [NCOA1_620_643]	–	–	–	–
N (otherwise negative)	N (otherwise negative)	–	–	DSVRKGKQDSTLLASLLQSFSSR [NRIP1_121_143_P124R]	P (Signal greater than 5% of the highest signal was defined as positive)	–	–	–
N (otherwise negative)	N (otherwise negative)	–	–	TTSPTAATTQNPVLSKLLMADQD [LCOR_40_62]	P (Signal greater than 5% of the highest signal was defined as positive)	–	–	–

Sequence	OGT isoforms activity, nc (nc-OGT [2])	OGT isoforms activity, s (s-OGT [3])	identification in microarray assay [4]	OGT isoforms activity, m (m-OGT [5])	OGT isoforms activity, m (m-OGT [1])	O-GlcNAcylation by three isoforms [4]	OGT isoforms activity, s (s-OGT [6])	OGT isoforms activity, nc (nc-OGT [7])
HGEDFSKVSQNPILTSLLQITGNG [MED1_591_614]	P (Signal greater than 5% of the highest signal was defined as positive)	N (otherwise negative)	–	–	N (otherwise negative)	–	–	–
PATSPKPSVASSQLALLLSSEAH [NRIP1_253_275_C263S]	P (Signal greater than 5% of the highest signal was defined as positive)	N (otherwise negative)	–	–	P (Signal greater than 5% of the highest signal was defined as positive)	–	–	–
HGSQNRPLLRNSLDDLLGPPSNA [NCOA3_MOUSE_1029_1051]	P (Signal greater than 5% of the highest signal was defined as positive)	N (otherwise negative)	–	–	N (otherwise negative)	–	–	–
SDTLPEVSAIPISLDGLLFPRPS [PRGR_42_64_C64S]	N (otherwise negative)	P (Signal greater than 5% of the highest signal was defined as positive)	–	–	P (Signal greater than 5% of the highest signal was defined as positive)	–	–	–
GQRNISTLSTIQKLPRLLVASSS [WIPI1_313_335_C318S]	P (Signal greater than 5% of the highest signal was defined as positive)	P (Signal greater than 5% of the highest signal was defined as positive)	–	–	P (Signal greater than 5% of the highest signal was defined as positive)	O-GlcNAcylation by three isoforms was observed	–	–
EGLRSRSTRMSTVS [KIF2C_105_118_S106G, kinase substrate microarray peptide …]	–	–	–	P (Signal greater than 5% of the highest signal was defined as positive (P))	–	–	N (otherwise negative (N))	N (otherwise negative (N))
LVSPAMREAPTSLSQLLDNSGAP [NCOA6_1479_1501]	P (Signal greater than 5% of the highest signal was defined as positive)	P (Signal greater than 5% of the highest signal was defined as positive)	–	–	P (Signal greater than 5% of the highest signal was defined as positive)	O-GlcNAcylation by three isoforms was observed	–	–
TVAASPAASGAPTLSRLLEAGPT [BRD8_254_276]	P (Signal greater than 5% of the highest signal was defined as positive)	P (Signal greater than 5% of the highest signal was defined as positive)	–	–	P (Signal greater than 5% of the highest signal was defined as positive)	O-GlcNAcylation by three isoforms was observed	–	–
GLGRSITSPTTLY [RBL-2_655_667, kinase substrate microarray peptide …]	–	–	–	P (Signal greater than 5% of the highest signal was defined as positive (P))	–	–	P (Signal greater than 5% of the highest signal was defined as positive (P))	P (Signal greater than 5% of the highest signal was defined as positive (P))
